Experimental data taken from US20260347364A1, “PYRAZOLO[4,3-F]QUINAZOLINE DERIVATIVES AS MODULATORS OF G12D MUTANT KRAS USEFUL FOR THE TREATMENT OF CANCER” (JAZZ PHARMACEUTICALS IRELAND LTD., priority 2023, published 2026).

Legend:
KRAS G12D = molecular target: T1, KRAS G12D (Homo sapiens, UniProt P01116, G12D); experiment: HTRF nucleotide exchange assay, KRAS G12D; format: biochemical; details: HTRF nucleotide exchange assay (NEA), class symbols
T1 construct: aa1-188 KRAS WT, HRAS WT, NRAS WT, or KRAS containing the G12D
T1 sequence (P01116 1-188 isoform P01116-2 G12D): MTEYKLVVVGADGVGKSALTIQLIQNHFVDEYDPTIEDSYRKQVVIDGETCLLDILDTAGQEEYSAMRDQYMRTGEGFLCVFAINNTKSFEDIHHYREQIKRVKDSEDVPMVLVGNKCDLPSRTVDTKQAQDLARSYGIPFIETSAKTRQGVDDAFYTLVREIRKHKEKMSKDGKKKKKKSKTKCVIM

KRAS WT = molecular target: T2, KRAS WT (Homo sapiens, UniProt P01116); experiment: HTRF nucleotide exchange assay, KRAS WT; format: biochemical; details: class symbols; for IC50: HTRF nucleotide exchange assay (NEA)
T2 construct: aa1-188 KRAS WT
T2 sequence (P01116 1-188 isoform P01116-2): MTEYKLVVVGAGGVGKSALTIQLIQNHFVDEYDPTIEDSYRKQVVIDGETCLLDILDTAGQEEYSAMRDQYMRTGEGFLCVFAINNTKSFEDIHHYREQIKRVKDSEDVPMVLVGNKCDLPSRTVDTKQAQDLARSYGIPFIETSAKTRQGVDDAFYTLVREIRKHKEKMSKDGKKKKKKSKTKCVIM

[1] = Metabolic stability in human liver hepatocytes (substrate depletion, intrinsic clearance); format: in vitro ADME; details: 37° C., Williams E Media, LC-MS/MS depletion
Description: Determining the in vitro metabolic stability of a new chemical entity (NCE) is a very useful tool within drug discovery. A metabolic stability study will determine the in vitro intrinsic clearance (CLint) of a compound. The CLint value represents a measure of enzyme activity toward an NCE and is independent of other physiological factors such as blood flow. Determination of CLint within drug discovery helps to identify metabolic liabilities within a compound series, and ultimately assist in the identification of compounds with improved metabolic stability. The CLint value determined in vitro can be used to predict in vivo clearance (using species specific scaling factors) in pre-clinical species and ultimately in human. The liver is the primary organ involved in drug metabolism, of which there are two pathways-Phase I and Phase II. Phase I metabolism is primarily oxidative with the majority of these oxidations catalysed by cytochrome P450 enzymes (CYPs) which are located in the smooth endoplasmic reticulum (ER) in the liver. Phase II metabolism is catalysed by various conjugative enzymes which are located mainly in the ER and the cytosol. The in vitro systems used to study drug metabolism are mainly subcellular fractions such as liver microsomes or whole cells (hepatocytes) isolated from the liver. Hepatocytes, being whole cells, contain both Phase I and Phase II metabolizing enzymes and produce their own cofactors. This assay determines the metabolic stability of test compounds in human liver hepatocytes using the substrate depletion approach. The lower limit of the assay is a T1/2 >462 min and a CLint […]. Therefore the upper limit of the assay is 277 μL/min/106 cells. Any CLint value higher than this should be given an out of range value. Hepatocytes were plated in Williams E Media with added L-glutamine, compounds were added as 1 mM DMSO solution and incubated at 37° C. Compound depletion was measured by LC-MS/MS at multiple time points following quenching with cold acetonitrile. CLint was calculated from the following equation:
CLint(μl/min/106cells)=(In(2)/T1/2)*1000/cell density(10^6cells/mL)

Row | Structure (SMILES) | IC50 (KRAS G12D) | IC50 (KRAS WT) | hepatocyte CLint [1] | KRAS^WT NEA (KRAS WT)
1 | CCc1c(F)ccc2cc(O)cc(-c3cc4nc(OC[C@@]56CCCN5C[C@H](F)C6)nc(N5CCCCCC5)c4c4cn(C)nc34)c12 [Example 9, 4-[9-(azepan-1-yl)-2-methyl-7-[[(2R,8S)-2-fluoro-1,2,3,5,6,7-hexahydropyrrolizin-8-yl]methoxy]pyrazolo[4,3-f]quinazolin-4-yl]-5-ethyl-6-fluoro-naphthalen-2-ol] | 0.1 to 10 µM | 0.1 to 10 µM | 42.5 µL/min/1e6 cells | 
2 | C#Cc1c(F)ccc2cc(O)cc(-c3ccc4c(N5CCCOCC5)nc(OC[C@@]56CCCN5C[C@H](F)C6)nc4c3F)c12 [WO2022258974 Example 26, reference compound] |  |  | 94.6 µL/min/1e6 cells | 
3 | C#Cc1c(F)ccc2cc(O)cc(-c3cc4nc(OC[C@@]56CCCN5C[C@H](F)C6)nc(N5CCCCCC5)c4c4cn(C)nc34)c12 [Example 12, 4-[9-(azepan-1-yl)-2-methyl-7-[[(2R,8S)-2-fluoro-1,2,3,5,6,7-hexahydropyrrolizin-8-yl]methoxy]pyrazolo[4,3-f]quinazolin-4-yl]-5-ethynyl-6-fluoro-naphthalen-2-ol] | 0.01 to 0.1 µM | 0.01 to 0.1 µM | 47.8 µL/min/1e6 cells | 
4 | C#Cc1c(F)ccc2cc(O)cc(-c3ncc4c(N5CCCCCC5)nc(OC[C@@]56CCCN5C[C@H](F)C6)nc4c3F)c12 [WO2022248885 Example 84, reference compound] |  |  | 95.6 µL/min/1e6 cells | 
5 | CCc1c(F)ccc2cc(O)cc(-c3cc4nc(OC[C@@]56CCCN5C[C@H](F)C6)nc(N5CCCn6nc(C(=O)N7CCCC7)cc6C5)c4c4cn(C)nc34)c12 [Example 23, [5-[4-(8-ethyl-7-fluoro-3-hydroxy-1-naphthyl)-2-methyl-7-[[(2R,8S)-2-fluoro-1,2,3,5,6,7-hexahydropyrrolizin-8-yl]methoxy]pyrazolo-[4,3-f]quinazolin-9-yl]4,6,7,8-tetrahydropyrazolo[1,5-a][1,4]diazepin-2-yl]-pyrrolidin-1-yl-methanone] | ≤ 0.01 µM | ≤ 0.01 µM |  | 
6 | CCc1c(F)ccc2cc(O)cc(-c3c(F)c4nc(OC[C@@]56CCCN5C[C@H](F)C6)nc(N5CC6CCC(C5)N6)c4c4cn(C)nc34)c12 [Example 99, 4-[9-(3,8-diazabicyclo[3.2.1]octan-3-yl)-5-fluoro-2-methyl-7-[[(2R,8S)-2-fluoro-1,2,3,5,6,7-hexahydropyrrolizin-8-yl]methoxy]pyrazolo[4,3-f]quinazolin-4-yl]-5-ethyl-6-fluoro-naphthalen-2-ol] | ≤ 0.01 µM | ≤ 0.01 µM |  | 
7 | CCc1c(F)ccc2cc(O)cc(-c3c(F)c4nc(OCC5(CN(C)C)CC5)nc(N5CCC[C@@](C)(O)C5)c4c4cn(C)nc34)c12 [Example 230, (3R)-1-[7-[[1-[(dimethylamino)methyl]cyclopropyl]methoxy]-4-(8-ethyl-7-fluoro-3-hydroxy-1-naphthyl)-5-fluoro-2-methyl-pyrazolo[4,3-f]quinazolin-9-yl]-3-methyl-piperidin-3-ol] | ≤ 0.01 µM | ≤ 0.01 µM |  | 
8 | C#Cc1c(F)ccc2cc(O)cc(-c3c(C)c4nc(OC[C@@]56CCCN5C[C@H](F)C6)nc(N5CCCn6nc(C(=O)N(C)C)cc6C5)c4c4cn(C)nc34)c12 [Example 97, 5-[4-(8-ethynyl-7-fluoro-3-hydroxy-1-naphthyl)-2,5-dimethyl-7-[[(2R,8S)-2-fluoro-1,2,3,5,6,7-hexahydropyrrolizin-8-yl]methoxy]pyrazolo[4,3-f]quinazolin-9-yl]-N,N-dimethyl-4,6,7,8-tetrahydropyrazolo[1,5-a][1,4]diazepine-2-carboxamide] | ≤ 0.01 µM | ≤ 0.01 µM |  | 
9 | CCc1c(F)ccc2cc(O)cc(-c3c(F)c4nc(OC[C@]5(C)CCCN5C)nc(N5CCOCC(C)(O)C5)c4c4cn(C)nc34)c12 (stereo partly drawn) [Example 161, 4-[4-(8-ethyl-7-fluoro-3-hydroxy-1-naphthyl)-5-fluoro-2-methyl-7-[[(2S)-1,2-dimethylpyrrolidin-2-yl]methoxy]pyrazolo[4,3-f]quinazolin-9-yl]-6-methyl-1,4-oxazepan-6-ol] | ≤ 0.01 µM | ≤ 0.01 µM |  | 
10 | CCc1c(F)ccc2cc(O)cc(-c3c(F)c4nc(OCC5(CN6CCOC(C(F)(F)F)C6)CC5)nc(N5CCOCC(C)(O)C5)c4c4cn(C)nc34)c12 (stereo not drawn) [Example 219, 4-[4-(8-ethyl-7-fluoro-3-hydroxy-1-naphthyl)-5-fluoro-2-methyl-7-[[1-[[2-(trifluoromethyl)morpholin-4-yl]methyl]cyclopropyl]methoxy]pyrazolo[4,3-f]quinazolin-9-yl]-6-methyl-1,4-oxazepan-6-ol] | 0.1 to 10 µM | 0.1 to 10 µM |  | 
11 | CCc1c(F)ccc2cc(O)cc(-c3cc4nc(OC[C@@]56CCCN5C[C@H](F)C6)nc(N5CC6C(=O)NC(=O)C6C5)c4c4cn(C)nc34)c12 (stereo partly drawn) [Example 17, 5-[4-(8-ethyl-7-fluoro-3-hydroxy-1-naphthyl)-2-methyl-7-[[(2R,8S)-2-fluoro-1,2,3,5,6,7-hexahydropyrrolizin-8-yl]methoxy]pyrazolo[4,3-f]quinazolin-9-yl]-3a,4,6,6a-tetrahydropyrrolo[3,4-c]pyrrole-1,3-dione] | ≤ 0.01 µM | ≤ 0.01 µM |  | 
12 | CCc1c(F)ccc2cc(O)cc(-c3cc4nc(OC[C@@]56CCCN5C[C@H](F)C6)nc(N5CCNCC5)c4c4cn(C)nc34)c12 [Example 13, 5-ethyl-6-fluoro-4-[2-methyl-9-piperazin-1-yl-7-[[(2R,8S)-2-fluoro-1,2,3,5,6,7-hexahydropyrrolizin-8-yl]methoxy]pyrazolo[4,3-f]quinazolin-4-yl]naphthalen-2-ol] | 0.01 to 0.1 µM | 0.1 to 10 µM |  | 
13 | CCc1c(F)ccc2cc(O)cc(-c3cc4nc(OC[C@@]56CCCN5C[C@H](F)C6)nc(N5CCCn6nc(C(=O)N(C)C)cc6C5)c4c4cn(CC(F)(F)F)nc34)c12 [Example 78, 5-[4-(8-ethyl-7-fluoro-3-hydroxy-1-naphthyl)-7-[[(2R,8S)-2-fluoro-1,2,3,5,6,7-hexahydropyrrolizin-8-yl]methoxy]-2-(2,2,2-trifluoroethyl)pyrazolo[4,3-f]quinazolin-9-yl]-N,N-dimethyl-4,6,7,8-tetrahydropyrazolo[1,5-a][1,4]diazepine-2-carboxamide] | ≤ 0.01 µM | 0.1 to 10 µM |  | 
14 | CCc1c(F)ccc2cc(O)cc(-c3c(F)c4nc(OC[C@@]56CCCN5C[C@H](F)C6)nc(N5CCCOCC5)c4c4cn(C)nc34)c12 [Example 88, 5-ethyl-6-fluoro-4-[5-fluoro-2-methyl-9-(1,4-oxazepan-4-yl)-7-[[(2R,8S)-2-fluoro-1,2,3,5,6,7-hexahydropyrrolizin-8-yl]methoxy]pyrazolo[4,3-f]quinazolin-4-yl]naphthalen-2-ol] | ≤ 0.01 µM | ≤ 0.01 µM |  | 
15 | Cn1cc2c(n1)c(-c1cccc3sc(N)c(C#N)c13)cc1nc(OC[C@@]34CCCN3C[C@H](F)C4)nc(N3CC4CCC(C3)N4)c12 [Example 86, 2-amino-4-[9-(3,8-diazabicyclo[3.2.1]octan-3-yl)-7-[[(2R,8S)-2-fluoro-1,2,3,5,6,7-hexahydropyrrolizin-8-yl]methoxy]-2-methyl-pyrazolo[4,3-f]quinazolin-4-yl]benzothiophene-3-carbonitrile] | ≤ 0.01 µM |  |  | D (<49% inhibition at 10 μM)
16 | CCc1c(F)ccc2cc(O)cc(-c3c(C)c4nc(OC[C@]5(C)CCCN5)nc(N5CCOCC(C)(O)C5)c4c4cn(C)nc34)c12 (stereo partly drawn) [Example 139, 4-[4-(8-ethyl-7-fluoro-3-hydroxy-1-naphthyl)-2,5-dimethyl-7-[[(2S)-2-methylpyrrolidin-2-yl]methoxy]pyrazolo[4,3-f]quinazolin-9-yl]-6-methyl-1,4-oxazepan-6-ol] | ≤ 0.01 µM | ≤ 0.01 µM |  | 
17 | CCc1c(F)ccc2cc(O)cc(-c3cc4nc(OC[C@@]56CCCN5C[C@H](F)C6)nc(N5CCC(O)C5)c4c4cn(C)nc34)c12 (mixture of isomers) [Example 117, 1-[4-(8-ethyl-7-fluoro-3-hydroxy-1-naphthyl)-2-methyl-7-[[rac-(2R,8S)-2-fluoro-1,2,3,5,6,7-hexahydropyrrolizin-8-yl]methoxy]pyrazolo[4,3-f]quinazolin-9-yl]pyrrolidin-3-ol] | ≤ 0.01 µM | ≤ 0.01 µM |  | 
18 | CCc1c(F)ccc2cc(O)cc(-c3c(C)c4nc(OC[C@@]56CCCN5C[C@H](F)C6)nc(N5CCCOCC5)c4c4cn(C)nc34)c12 [Example 79, 4-[2,5-dimethyl-9-(1,4-oxazepan-4-yl)-7-[[(2R,8S)-2-fluoro-1,2,3,5,6,7-hexahydropyrrolizin-8-yl]methoxy]pyrazolo[4,3-f]quinazolin-4-yl]-5-ethyl-6-fluoro-naphthalen-2-ol] | ≤ 0.01 µM | ≤ 0.01 µM |  | 
